Columns and labels:
[1] = Surface phosphorus content of pamidronate-treated steel by SEM and EDAX; assay type: physicochemical
[2] = test system: rat A10 arterial smooth muscle cells; assay: In vitro transduction of A10 cells by adenovirus GFP tethered to steel stents/rods; assay type: cell-based
Procedure: A type 5 adenovirus vector encoding GFP was used in this experiment. Stainless steel stents were incubated with amino-pamidronate, SPDP and anti-adenovirus knob F(ab)′2 antibody; amino-pamidronate and SPDP; amino-pamidronate only; or a stent only, without modification. The specific anti-adenovirus knob F(ab′)2 bound stents were incubated in the ad-GFP solution for 1 hour at 37 C. The virus loading in the incubation pool was 1×10^8 pfu/stent for all groups. The stents were then removed from the virus pool and rinsed with PBS followed by overnight washing. Images obtained by atomic force microscopy confirmed that high levels of vector immobilization could be achieved by this method.
The virus binding efficacy was evaluated in vitro using rat A10 arterial smooth muscle cells. A cell suspension of 5×10^4 A10 cells per ml of M199 medium was prepared with 10% FBS and 1% penicillin/streptomycin. The stent was rinsed with M199 medium once and equilibrated in the M199 medium at 37 C. for 10 minutes in a 6 well culture plate. The medium from the wells was aspirated, holding the stents, and 2 ml cell suspension was added to each well. Cell transduction was observed by fluorescence microscopy using a FITC filter. […] 90% of cells with adenovirus GFP anti-the antibody bound stent were transduced. […] Consequently, transduction efficiency is enhanced in vitro in antibody-bound stents compared to control stents.
A10 smooth muscle cells were transduced with SPDP-anti-adenovirus knob F(ab)′2 antibody-adenovirus GFP bound stainless steel rods, and pretreated with either 1.5 M pamidronate, 3.0 M pamidronate or 5.0 M pamidronate. Cell transduction was proportional to the pamidronate concentration used in a reaction. […] Accordingly, A10 cell transduction efficiency is related to pamidronate concentration used in the reaction.

NCCC(O)(P(=O)(O)O)P(=O)(O)O [pamidronate, 3-amino-hydroxypropylidene-1,1-bisphosphonic acid]
phosphorus percent by weight ([1]; stainless steel rod after reaction with pamidronate at pH 5, EDAX): 13% | phosphorus percent by weight ([1]; stainless steel rod after reaction with pamidronate at pH 7, EDAX): 1% | cell transduction (qualitative) ([2]; pretreated with 5 M pamidronate): did not show much increase in cell transduction | cell transduction (qualitative) ([2]; steel rods pretreated with 1.5 M pamidronate): much less cell transduction | cell transduction (qualitative) ([2]; steel rods pretreated with 3.0 M pamidronate): optimal
